Measured values: publication PMC8151276, “An Integrated Approach toward NanoBRET Tracers for Analysis of GPCR Ligand Engagement” (Molecules, 2021)

Target: T1, GALR2 (Homo sapiens, UniProt O43603)
T1 construct: purchased Promega (in-house HiBiT-GPCR construct library, NanoBRET)
T1 sequence (O43603 1-387): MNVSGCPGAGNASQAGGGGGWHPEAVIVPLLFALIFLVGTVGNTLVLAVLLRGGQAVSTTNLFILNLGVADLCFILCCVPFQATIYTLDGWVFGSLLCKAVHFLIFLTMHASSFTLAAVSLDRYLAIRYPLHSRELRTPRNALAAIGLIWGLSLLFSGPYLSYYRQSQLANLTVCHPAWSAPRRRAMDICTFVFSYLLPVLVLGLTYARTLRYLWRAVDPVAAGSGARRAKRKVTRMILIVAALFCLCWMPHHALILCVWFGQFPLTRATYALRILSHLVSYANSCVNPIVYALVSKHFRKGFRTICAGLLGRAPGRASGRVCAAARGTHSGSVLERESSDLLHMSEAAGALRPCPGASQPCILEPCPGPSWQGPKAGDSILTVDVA
Experiment: NanoBRET screen HiBiT-GALR2 in HEK293
Assay type: binding
Description: Each tracer candidate was screened across the entire library of HiBiT-GPCR constructs using NanoBRET as the detection modality. As depicted in Figure 4A, the specificity of interactions was evaluated through decrease in BRET due to competitive displacement of a bound tracer by excess parental compound. Each tracer was analyzed for binding to each HiBiT-GPCR fusion in the absence and in the presence of competing parental compound. Briefly, HEK293 cells were transfected with HiBiT-GPCR constructs diluted into promoterless DNA to reduce expression and maximize translocation to the cell surface. Each tracer candidate was then screened at concentrations of 1 μM and 0.1 μM across cells expressing these fusions. Cells were treated for 1.5 h with tracer either alone or in the presence of 20 μM competing parental compound (i.e., control). BRET was measured upon addition of purified LgBiT and subsequent complementation with HiBiT genetically fused to a GPCR. The specificity of interactions was assessed through a decrease in BRET signal due to competitive displacement of the bound tracer. To further gauge the robustness of these interactions, the fold response over the control (i.e., BRETtracer/BRETcontrol) was calculated. We chose a 1.5-fold response, which translates to ≥7-fold signal over noise as the minimal threshold required to score an interaction as positive. […]. Below we highlight the screening results obtained for our exemplary fluorescent tracers based on Clozapine, Amitriptyline and AZD1283.
HiBiT-GPCR DNA constructs were diluted in 10 mM Tris pH 8 to a final concentration of 0.01 μg/μL, arrayed in 96-well plates and stored at −20 °C. For transfection, HEK293 cells were suspended in Opti-MEM (without phenol red) supplemented with 2% fetal bovine serum (Seradigm) and 100 units/mL penicillin–streptomycin (Gibco) at a final concentration of 220,000 cells/mL and dispensed into white 96-well plates at 90 μL/well. Subsequent transfections and screens were carried using an Agilent Bravo Automated Liquid Handling Platform. First, the 96-well HiBiT DNA arrays were diluted 25-fold in Opti-MEM (without serum or phenol red) to a final concentration of 0.0004 μg/μL and 20 μL of the diluted DNAs were transferred into new 96-well plates. Next, promoterless carrier DNA (1 μg/μL) was diluted 25-fold (0.04 μg/μL) and then dispensed into the diluted arrays at 20 μL/well. Following brief mixing, Viafect transfection reagent (Promega) diluted 16-fold into Opti-MEM was dispensed into the plates at 40 μL/well. After mixing by pipetting, plates were incubated for 10 min on the pipetting station deck. The DNA-transfection reagent complexes were then added to plates containing cells. To facilitate the screen, 10 μL of DNA-transfection reagent complexes were added in duplicates to the top 4 and bottom 4 rows, resulting in two identical 48-well arrays per plate. Plates with transfected cells were incubated for 18–20 h at 37 °C/5% CO2. A screen of each tracer across the entire library using two different concentrations requires duplicate plates of transfected cells. Depending on the number of tracers being screened, transfections can be scaled up using the same ratios. The next day, for each tracer, four 20× screening solutions in tracer dilution buffer (Promega) were prepared: two duplicates at final concentration of 20 μM and two duplicates at a final concentration of 2 μM. A competing unmodified compound was added to one of each duplicate at a final concentration of 400 μM. The four resulting solutions were diluted 4-fold in Opti-MEM without serum or phenol red to generate 5× solutions (5 µM and 0.5 µM tracer +/− 100 μM competing compound). To screen the library, a BioTek MultiFlo FX liquid dispenser was used to dispense 22.5 µL of tracer solution to the top 4 rows and 22.5 µL tracer + competing compound solution to the 4 bottom rows. Plates were briefly mixed on an orbital shaker and incubated for 1.5 h at room temperature. […]

Q: Which “NanoBRET Fold Response” value (GALR2, 0.1μM) does the source give for CCOC(=O)c1cc(C#N)c(N2CCC(C(=O)NS(=O)(=O)Cc3ccccc3/C=C/C(=O)NCCNC(=O)CCc3ccc4n3[B-](F)(F)[N+]3=C(c5ccc[nH]5)C=CC3=C4)CC2)nc1C [AZD1283-1-NB590] here?
A: The value was 1.09.

Q: And the “NanoBRET Fold Response” value (GALR2, 1μM)?
A: Its value is 1.04.

Q: Which “NanoBRET Fold Response” value (GALR2, tracer 0.1μM) does the source give for N#CN=C(NCCCOc1cccc(CN2CCCCC2)c1)NCCNC(=O)CCOCCOCCOCCOCCNC(=O)CCc1ccc2n1[B-](F)(F)[N+]1=C(c3ccc[nH]3)C=CC1=C2 [Aminopotentidine-2-NB590] here?
A: Its value is 0.94.

Q: And the “NanoBRET Fold Response” value (GALR2, tracer 1μM)?
A: The value was 0.99.

Q: How did the “NanoBRET Fold Response” value (tracer at 0.1μM) turn out when CN(C)CCC=C1c2ccccc2CCc2ccc(C(=O)NCCNC(=O)CCOCCOCCOCCOCCNC(=O)CCc3ccc4n3[B-](F)(F)[N+]3=C(c5ccc[nH]5)C=CC3=C4)cc21 [Amitriptyline-a-2-NB590] was run?
A: Its value is 1.02.

Q: And the “NanoBRET Fold Response” value (tracer at 1μM)?
A: The value was 0.99.

Q: Which “NanoBRET Fold Response” value (tracer at 0.1μM, listed as amitriptyline-b-2-NB590) does the source give for CN(C)CCC=C1c2ccccc2CCc2ccc(C(=O)NCCNC(=O)CCOCCOCCOCCOCCNC(=O)CCc3ccc4n3[B-](F)(F)[N+]3=C(c5ccc[nH]5)C=CC3=C4)cc21 [Amitriptyline-b-2-NB590] here?
A: Its value is 1.10.

Q: And the “NanoBRET Fold Response” value (tracer at 1μM, listed as amitriptyline-b-2-NB590)?
A: The value was 1.11.

Q: Which results are given for COc1ccc2c(n1)c(CCNC(C)=O)cn2CCNC(=O)CCc1ccc2n1[B-](F)(F)[N+]1=C(c3ccc[nH]3)C=CC1=C2 [Azamelatonin-1-NB590]?
A: NanoBRET Fold Response (0.1μM tracer): 0.91; NanoBRET Fold Response (1μM tracer): 1.23

Q: COc1ccc2[nH]c(-c3ccc(CNC(=O)CCOCCOCCOCCOCCNC(=O)CCc4ccc5n4[B-](F)(F)[N+]4=C(c6ccc[nH]6)C=CC4=C5)cc3)c(CCNC(C)=O)c2n1 [AzomelatoninICO9-2-NB590] was tested. Which “NanoBRET Fold Response” value (0.1μM tracer) did it give?
A: Its value is 0.92.

Q: What about the “NanoBRET Fold Response” value (1μM tracer) of the same compound?
A: Its value is 1.01.

Q: With O=C(CCOCCOCCOCCOCCNC(=O)CCc1ccc2n1[B-](F)(F)[N+]1=C(c3ccc[nH]3)C=CC1=C2)NCCCN1CCN(C2=Nc3cc(Cl)ccc3Nc3ccccc32)CC1 [Clozapine-a-2-NB590] as the compound, how does the “NanoBRET Fold Response” value (GALR2, 0.1μM tracer) read?
A: The value was 1.09.

Q: What about the “NanoBRET Fold Response” value (GALR2, 1μM tracer) of the same compound?
A: Its value is 1.19.

Q: What does the source list for CN1CCN(C2=Nc3cc(Cl)ccc3Nc3ccc(CNC(=O)CCOCCOCCOCCOCCNC(=O)CCc4ccc5n4[B-](F)(F)[N+]4=C(c6ccc[nH]6)C=CC4=C5)cc32)CC1 [Clozapine-b-2-NB590]?
A: NanoBRET Fold Response (GALR2, 0.1μM tracer): 0.93; NanoBRET Fold Response (GALR2, 1μM tracer): 0.99

Q: What does the source list for CN1CCN(C2=Nc3cc(Cl)ccc3N(CC(=O)NCCOCCOCCOCCOCCNC(=O)CCc3ccc4n3[B-](F)(F)[N+]3=C(c5ccc[nH]5)C=CC3=C4)c3ccccc32)CC1 [Clozapine-c-2-NB590]?
A: NanoBRET Fold Response (GALR2, 0.1μM tracer): 1.00; NanoBRET Fold Response (GALR2, 1μM tracer): 1.05

Q: What does the source list for O=C(CCOCCOCCOCCOCCNC(=O)CCc1ccc2n1[B-](F)(F)[N+]1=C(c3ccc[nH]3)C=CC1=C2)NCCCN1CCN(C2=Nc3ccccc3Oc3ccc(Cl)cc32)CC1 [Loxapine-a-2-NB590]?
A: NanoBRET Fold Response (GALR2, tracer 0.1μM): 1.09; NanoBRET Fold Response (GALR2, tracer 1μM): 1.12

Q: Which “NanoBRET Fold Response” value (GALR2, tracer 0.1μM) does the source give for COc1ccccc1N1CCN(CCCCN2C(=O)c3ccc(CNC(=O)CCOCCOCCOCCOCCNC(=O)CCc4ccc5n4[B-](F)(F)[N+]4=C(c6ccc[nH]6)C=CC4=C5)cc3C2=O)CC1 [NAN-190-2-NB590] here?
A: The value was 1.00.

Q: And the “NanoBRET Fold Response” value (GALR2, tracer 1μM)?
A: The value was 0.99.

Q: What does the source list for COc1ccccc1N1CCN(CCCCN2C(=O)c3ccc(CNC(=O)CCOCCNC(=O)c4ccc(CNC(=O)CCc5ccc6n5[B-](F)(F)[N+]5=C(c7ccc[nH]7)C=CC5=C6)cc4)cc3C2=O)CC1 [NAN-190-3-NB590]?
A: NanoBRET Fold Response (GALR2, tracer 0.1μM): 1.03; NanoBRET Fold Response (GALR2, tracer 1μM): 1.00

Q: With O=C(CCc1ccc2n1[B-](F)(F)[N+]1=C(c3ccc[nH]3)C=CC1=C2)NCc1ccc(C(=O)NCCOCCC(=O)N[C@@H]2CC[C@@]3(O)[C@H]4Cc5ccc(O)c6c5[C@@]3(CCN4CC3CC3)[C@H]2O6)cc1 [Naltrexone-3-NB590] as the compound, how does the “NanoBRET Fold Response” value (GALR2, tracer 0.1μM) read?
A: The value was 1.00.

Q: What about the “NanoBRET Fold Response” value (GALR2, tracer 1μM) of the same compound?
A: Its value is 0.98.

Q: Which results are given for Cc1cc2c(s1)Nc1ccccc1N=C2N1CCN(CCCNC(=O)CCOCCOCCOCCOCCNC(=O)CCc2ccc3n2[B-](F)(F)[N+]2=C(c4ccc[nH]4)C=CC2=C3)CC1 [Olanzapine-a-2-NB590]?
A: NanoBRET Fold Response (GALR2, tracer 0.1μM): 0.96; NanoBRET Fold Response (GALR2, tracer 1μM): 1.07

Q: How did the “NanoBRET Fold Response” value (GALR2, 0.1μM) turn out when O=C(CCc1ccc2n1[B-](F)(F)[N+]1=C(c3ccc[nH]3)C=CC1=C2)NCc1ccc(C(=O)NCCOCCOCCNCC(O)COc2cccc3ccccc23)cc1 (stereo not shown) [Propranolol-3-NB590] was run?
A: The value was 1.00.

Q: And the “NanoBRET Fold Response” value (GALR2, 1μM)?
A: The value was 0.99.

Q: What does the source list for O=C(CCc1ccc2n1[B-](F)(F)[N+]1=C(c3ccc[nH]3)C=CC1=C2)NCCOCCOCCNC(=O)OCCOCCN1CCN(C2=Nc3ccccc3Sc3ccccc32)CC1 [Quetiapine-a-2-NB590]?
A: NanoBRET Fold Response (GALR2, tracer 0.1μM): 1.01; NanoBRET Fold Response (GALR2, tracer 1μM): 0.83

Q: Cc1nc2n(c(=O)c1CCN1CCC(c3noc4cc(F)ccc34)CC1)CCCC2OC(=O)NCCOCCOCCOCCOCCNC(=O)CCc1ccc2n1[B-](F)(F)[N+]1=C(c3ccc[nH]3)C=CC1=C2 (stereo not shown) [Risperidone-2-NB590] was tested. Which “NanoBRET Fold Response” value (GALR2, tracer 0.1μM) did it give?
A: The value was 1.03.

Q: And the “NanoBRET Fold Response” value (GALR2, tracer 1μM)?
A: Its value is 0.97.

Q: Which “NanoBRET Fold Response” value (GALR2, tracer 0.1μM) does the source give for CC(C)N(CC[C@H](c1ccccc1)c1cc(CCNC(=O)CCOCCOCCOCCOCCNC(=O)CCc2ccc3n2[B-](F)(F)[N+]2=C(c4ccc[nH]4)C=CC2=C3)ccc1O)C(C)C [Tolterodine-2-NB590] here?
A: Its value is 0.97.

Q: What about the “NanoBRET Fold Response” value (GALR2, tracer 1μM) of the same compound?
A: The value was 1.09.

Q: Which “NanoBRET Fold Response” value (GALR2, tracer 0.1μM) does the source give for CC(C)N(CC[C@H](c1ccccc1)c1cc(CCNC(=O)c2ccc(CNC(=O)CCc3ccc4n3[B-](F)(F)[N+]3=C(c5ccc[nH]5)C=CC3=C4)cc2)ccc1O)C(C)C [Tolterodine-BZ-NB590] here?
A: Its value is 0.99.

Q: What about the “NanoBRET Fold Response” value (GALR2, tracer 1μM) of the same compound?
A: The value was 1.08.

Q: For CCCn1c(=O)c2[nH]c(-c3ccc(OCC(=O)NCCNC(=O)CCOCCNC(=O)c4ccc(CNC(=O)CCc5ccc6n5[B-](F)(F)[N+]5=C(c7ccc[nH]7)C=CC5=C6)cc4)cc3)nc2n(CCC)c1=O [XAC-3-NB590], which “NanoBRET Fold Response” value (GALR2, tracer 0.1μM) is on record?
A: The value was 1.07.

Q: And the “NanoBRET Fold Response” value (GALR2, tracer 1μM)?
A: The value was 0.96.
